Measurements: US20220154247A1, “ULTRASENSITIVE METHOD FOR DETECTING CELL DEATH” (priority 2019, published 2022)
“Also recorded” adds a separate entry of the source.

Legend:
MDA-MB-231 cells = assay: DNA fragments in the cytoplasmic fraction detected by capillary electrophoresis (fragment analyzer); format: cell-based; conditions: MDA-MB-231 cells treated 24 h with 50 or 100 nM staurosporine, compared to untreated cells
Description: MDA-MB-231 cells were inoculated in 6 [MUT] at an amount of 3 million cells per 35 ml of DMEM high glucose medium (10% FCS, P/S). The next day, the MDA-MB-231 cells were treated with 50 nM and 100 nM staurosporine. The medium of the 2 untreated [MUT] was changed. After 24 h of treatment, the MDA-MB-231 cells were lysed with 2 ml of lysis buffer added to the [MUT] for 15 min at ambient temperature, then 2 ml were transferred into a tube and centrifuged at 2000 g for 5 min. The supernatant was then treated with RNaseA (20 μg/ml) and then with Proteinase K (used at 100 ug/ml), and placed at 70° C. for 15 min. The lysis buffer is a mixture of 50 mM 4-(2-hydroxyethyl)-1-piperazineethanesulfonic acid, 5 mM ethylenediaminetetraacetic acid, 150 mM sodium chloride, and 50 μg/ml digitonin. 1/10 volume of sodium acetate (NaAc) (3 M, pH 5.2) was then added. DNA was precipitated with 1 volume of isopropanol. The samples were left at ambient temperature for 15 min and then centrifuged at 20 000 g for 20 min at +4° C. The supernatant was aspirated and the pellet was washed with 75% ethanol. The pellet was dried and then resuspended in 30 μl of TE at pH 8 and analyzed in a fragment analyzer.

MOLM14 cells = assay: Annexin V/propidium iodide labeling, flow cytometry, percentage of apoptotic cells; format: cell-based; conditions: MOLM14 cells treated 16 h with 0-10 μM etoposide; no plateau with the PCR method
Description: The cells are washed with PBS then resuspended in 1× binding buffer at a concentration of 1×10^6 cells/ml. 10 μl of Annexin V Pacific Blue and 10 μl of propidium iodide (Biolegend kit) are added to 200 μl of this cell suspension, which is then incubated for 15 minutes in darkness and at ambient temperature. After centrifugation at 300 g for 5 min, the supernatant is gently aspirated and 500 μl of 1× binding buffer are added.
These cells are then used in flow cytometry for determining the effect of the treatment and the number of cells in apoptosis. These cells are sorted depending on their annexin V and propidium iodide statuses in order to then carry out a PCR.
MOLM14 cells are left untreated (NT) or treated for 16 h with increasing concentrations of etoposide (0-0.62-1.25-2.5-5 or 10 μM).
The cells are labeled using the Pacific Blue™ Annexin V kit (Biolegend) according to the supplier's recommendations and then analyzed by flow cytometry (MACSQuant VYB—Miltenyi Biotec). The percentage of positive apoptotic cells (annexin V) is determined.

SMILES | DNA fragments, a marker of cell death, in the cytoplasmic fraction (MDA-MB-231 cells) | concentration from which the flow cytometry method (annexin V) reaches a detection plateau (MOLM14 cells) [µM]
CN[C@@H]1C[C@H]2O[C@@](C)([C@@H]1OC)n1c3ccccc3c3c4c(c5c6ccccc6n2c5c31)C(=O)NC4 [staurosporine] | detected; also recorded: increase in the quantity of DNA fragments | –
COc1cc([C@@H]2c3cc4c(cc3[C@@H](O[C@@H]3O[C@@H]5CO[C@@H](C)O[C@H]5[C@H](O)[C@H]3O)[C@H]3COC(=O)[C@H]23)OCO4)cc(OC)c1O [etoposide] | – | ≥ 2.5
